From patent US20240043427A1 (Gilead Sciences, Inc., priority 2020, published 2024)

How the values were obtained:
[1] = target: T1, CD73 (Homo sapiens (Human), UniProt P21589); experiment: MDA-MB-231 Cell Based CD73 Activity Assay (DMEM); conditions: MDA-MB-231-GFP cells, DMEM medium with 10% human plasma, 200 uM AMP
[2] = target: T1, CD73; format: biochemical; conditions: 1 mM NaH2PO4 in enzyme buffer, CD73 0.3 nM, AMP 15 uM

T1 sequence (P21589 27-574): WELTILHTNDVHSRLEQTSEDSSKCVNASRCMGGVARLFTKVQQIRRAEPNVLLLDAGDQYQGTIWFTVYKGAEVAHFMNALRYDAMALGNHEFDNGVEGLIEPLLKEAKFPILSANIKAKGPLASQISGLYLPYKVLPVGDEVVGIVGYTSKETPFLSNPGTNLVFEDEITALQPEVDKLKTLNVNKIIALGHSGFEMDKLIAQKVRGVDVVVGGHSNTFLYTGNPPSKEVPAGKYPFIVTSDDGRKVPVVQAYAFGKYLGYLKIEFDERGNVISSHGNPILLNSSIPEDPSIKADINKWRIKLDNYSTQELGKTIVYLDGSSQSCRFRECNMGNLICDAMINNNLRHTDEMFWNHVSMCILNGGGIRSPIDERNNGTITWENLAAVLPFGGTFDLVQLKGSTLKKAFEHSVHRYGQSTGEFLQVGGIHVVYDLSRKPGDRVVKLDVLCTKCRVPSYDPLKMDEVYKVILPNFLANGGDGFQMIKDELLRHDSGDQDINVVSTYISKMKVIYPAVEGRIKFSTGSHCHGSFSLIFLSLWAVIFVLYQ

Compound	EC50 [1]	IC50 [2]
O=c1[nH]cc(-c2cc([C@H]3C[C@@H]3c3ccc(Cl)cc3)c3nccn3n2)c(=O)[nH]1 [Example 633, 5-(8-((1S,2S)-2-(4-chlorophenyl)cyclopropyl)imidazo[1,2-b]pyridazin-6-yl)pyrimidine-2,4(1H,3H)-dione]	7.08 nM	1.55 nM
O=c1[nH]cc(-c2cc([C@@H]3C[C@H]3c3ccc(Cl)cc3)c3nccn3n2)c(=O)[nH]1 [Example 634, 5-(8-((1R,2R)-2-(4-chlorophenyl)cyclopropyl)imidazo[1,2-b]pyridazin-6-yl)pyrimidine-2,4(1H,3H)-dione]	39 nM	5.19 nM
O=c1[nH]cc(-c2cc([C@H]3C[C@@H]3c3ncc(C(F)(F)F)cc3F)c3nccn3n2)c(=O)[nH]1 [Example 635, 5-(8-((1S,2S)-2-(3-fluoro-5-(trifluoromethyl)pyridin-2-yl)cyclopropyl)imidazo[1,2-b]pyridazin-6-yl)pyrimidine-2,4(1H,3H)-dione]	2.75 nM	2.08 nM
O=c1[nH]cc(-c2cc(N3CC4CCC3C4)c3nccn3n2)c(=O)[nH]1 (centres unmarked) [Example 643, 5-(8-(2-azabicyclo[2.2.1]heptan-2-yl)imidazo[1,2-b]pyridazin-6-yl)pyrimidine-2,4(1H,3H)-dione]	98.9 nM	36.4 nM
O=c1[nH]cc(-c2cc(N3CC4CC4(C(F)(F)F)C3)c3nccn3n2)c(=O)[nH]1 (centres unmarked) [Example 645, 5-(8-(1-(trifluoromethyl)-3-azabicyclo[3.1.0]hexan-3-yl)imidazo[1,2-b]pyridazin-6-yl)pyrimidine-2,4(1H,3H)-dione]	79.6 nM	49 nM
O=c1[nH]cc(-c2cc(N3C4CCC3CC4)c3nccn3n2)c(=O)[nH]1 [Example 646, 5-(8-(7-azabicyclo[2.2.1]heptan-7-yl)imidazo[1,2-b]pyridazin-6-yl)pyrimidine-2,4(1H,3H)-dione]	338 nM	> 250 nM
O=c1[nH]cc(-c2cc(N3C4CCCC3CC4)c3nccn3n2)c(=O)[nH]1 [Example 648, 5-(8-(8-azabicyclo[3.2.1]octan-8-yl)imidazo[1,2-b]pyridazin-6-yl)pyrimidine-2,4(1H,3H)-dione]	1950 nM	> 250 nM
O=c1[nH]cc(-c2cc(N3CC4CC(C4)C3)c3nccn3n2)c(=O)[nH]1 [Example 650, 5-(8-(3-azabicyclo[3.1.1]heptan-3-yl)imidazo[1,2-b]pyridazin-6-yl)pyrimidine-2,4(1H,3H)-dione]	18.8 nM	6.86 nM
O=c1[nH]cc(-c2cc(N3CCC4CCC3C4)c3nccn3n2)c(=O)[nH]1 (centres unmarked) [Example 651, 5-(8-(2-azabicyclo[3.2.1]octan-2-yl)imidazo[1,2-b]pyridazin-6-yl)pyrimidine-2,4(1H,3H)-dione]	480 nM	129 nM
CC(C)NC(=O)CC1CCN(c2cc(-c3c[nH]c(=O)[nH]c3=O)nn3ccnc23)C1 (centres unmarked) [Example 654, 2-(1-(6-(2,4-dioxo-1,2,3,4-tetrahydropyrimidin-5-yl)imidazo[1,2-b]pyridazin-8-yl)pyrrolidin-3-yl)-N-isopropylacetamide]	133 nM	54.5 nM
CC(C)NC(=O)CC1CN(c2cc(-c3c[nH]c(=O)[nH]c3=O)nn3ccnc23)CC1(F)F (centres unmarked) [Example 659, 2-(1-(6-(2,4-dioxo-1,2,3,4-tetrahydropyrimidin-5-yl)imidazo[1,2-b]pyridazin-8-yl)-4,4-difluoropyrrolidin-3-yl)-N-isopropylacetamide]	38.1 nM	3.98 nM
O=C(CC1CN(c2cc(-c3c[nH]c(=O)[nH]c3=O)nn3ccnc23)CC1(F)F)NC12CC(C1)C2 (centres unmarked) [Example 661, N-(bicyclo[1.1.1]pentan-1-yl)-2-(1-(6-(2,4-dioxo-1,2,3,4-tetrahydropyrimidin-5-yl)imidazo[1,2-b]pyridazin-8-yl)-4,4-difluoropyrrolidin-3-yl)acetamide]	25.5 nM	4.68 nM

The next lines start with the values.

EC50 [1]	IC50 [2]	Compound
0.23 nM	0.73 nM	O=c1[nH]cc(-c2cc([C@H]3C[C@@H]3c3cnc4cnn(CC(F)(F)F)c4c3)c3ncc(F)n3n2)c(=O)[nH]1 [Example 628, 5-(3-fluoro-8-((1S,2S)-2-(1-(2,2,2-trifluoroethyl)-1H-pyrazolo[4,3-b]pyridin-6-yl)cyclopropyl)imidazo[1,2-b]pyridazin-6-yl)pyrimidine-2,4(1H,3H)-dione]
0.05 nM	0.2 nM	O=c1[nH]cc(-c2cc([C@H]3C[C@@H]3c3ccc4cnn(CC(F)(F)F)c4c3F)c3ncnn3n2)c(=O)[nH]1 [Example 629, 5-(8-((1S,2S)-2-(7-fluoro-1-(2,2,2-trifluoroethyl)-1H-indazol-6-yl)cyclopropyl)-[1,2,4]triazolo[1,5-b]pyridazin-6-yl)pyrimidine-2,4(1H,3H)-dione]
0.13 nM	0.34 nM	O=c1[nH]cc(-c2cc([C@H]3C[C@@H]3c3cc4c(cn3)cnn4CC(F)(F)F)c3nccn3n2)c(=O)[nH]1 [Example 636, 5-(8-((1S,2S)-2-(1-(2,2,2-trifluoroethyl)-1H-pyrazolo[4,3-c]pyridin-6-yl)cyclopropyl)imidazo[1,2-b]pyridazin-6-yl)pyrimidine-2,4(1H,3H)-dione]
0.39 nM	2.06 nM	O=c1[nH]cc(-c2cc([C@H]3C[C@@H]3c3cc4c(cn3)c(C(F)(F)F)nn4CC(F)(F)F)c3nccn3n2)c(=O)[nH]1 [Example 637, 5-(8-((1S,2S)-2-(1-(2,2,2-trifluoroethyl)-3-(trifluoromethyl)-1H-pyrazolo[4,3-c]pyridin-6-yl)cyclopropyl)imidazo[1,2-b]pyridazin-6-yl)pyrimidine-2,4(1H,3H)-dione]
0.58 nM	2.42 nM	O=c1[nH]cc(-c2cc([C@H]3C[C@@H]3c3ccc4nc5n(c4c3)[C@H](C(F)(F)F)CC5)c3nccn3n2)c(=O)[nH]1 [Example 639, 5-(8-((1S,2S)-2-((S)-1-(trifluoromethyl)-2,3-dihydro-1H-benzo[d]pyrrolo[1,2-a]imidazol-7-yl)cyclopropyl)imidazo[1,2-b]pyridazin-6-yl)pyrimidine-2,4(1H,3H)-dione]
0.12 nM	1.6 nM	O=c1[nH]cc(-c2cc([C@H]3C[C@@H]3c3ccc4nc5n(c4c3)[C@@H](C(F)(F)F)CC5)c3nccn3n2)c(=O)[nH]1 [Example 640, 5-(8-((1S,2S)-2-((R)-1-(trifluoromethyl)-2,3-dihydro-1H-benzo[d]pyrrolo[1,2-a]imidazol-7-yl)cyclopropyl)imidazo[1,2-b]pyridazin-6-yl)pyrimidine-2,4(1H,3H)-dione]
207 nM	77.5 nM	O=c1[nH]cc(-c2cc(N3CC4CC3C4)c3nccn3n2)c(=O)[nH]1 [Example 641, 5-(8-(2-azabicyclo[2.1.1]hexan-2-yl)imidazo[1,2-b]pyridazin-6-yl)pyrimidine-2,4(1H,3H)-dione]
234 nM	129 nM	O=c1[nH]cc(-c2cc(N3CC4CCC3CC4)c3nccn3n2)c(=O)[nH]1 [Example 647, 5-(8-(2-azabicyclo[2.2.2]octan-2-yl)imidazo[1,2-b]pyridazin-6-yl)pyrimidine-2,4(1H,3H)-dione]
21.7 nM	11.7 nM	CC1(C#N)CCN(c2cc(-c3c[nH]c(=O)[nH]c3=O)nn3ccnc23)C1 (centres unmarked) [Example 649, 1-(6-(2,4-dioxo-1,2,3,4-tetrahydropyrimidin-5-yl)imidazo[1,2-b]pyridazin-8-yl)-3-methylpyrrolidine-3-carbonitrile]
79.6 nM	19.6 nM	O=c1[nH]cc(-c2cc(N3CCC(CO)(CCl)C3)c3nccn3n2)c(=O)[nH]1 (centres unmarked) [Example 652, 5-(8-(3-(chloromethyl)-3-(hydroxymethyl)pyrrolidin-1-yl)imidazo[1,2-b]pyridazin-6-yl)pyrimidine-2,4(1H,3H)-dione]
130 nM	25.3 nM	O=c1[nH]cc(-c2cc(N3CCC4(COC4)C3)c3nccn3n2)c(=O)[nH]1 [Example 653, 5-(8-(2-oxa-6-azaspiro[3.4]octan-6-yl)imidazo[1,2-b]pyridazin-6-yl)pyrimidine-2,4(1H,3H)-dione]
254 nM	40.4 nM	O=C(CC(F)(F)F)N1CCC12CCN(c1cc(-c3c[nH]c(=O)[nH]c3=O)nn3ccnc13)C2 (centres unmarked) [Example 655, 5-(8-(1-(3,3,3-trifluoropropanoyl)-1,6-diazaspiro[3.4]octan-6-yl)imidazo[1,2-b]pyridazin-6-yl)pyrimidine-2,4(1H,3H)-dione]
57 nM	10.1 nM	CC(=O)N1CCC12CCN(c1cc(-c3c[nH]c(=O)[nH]c3=O)nn3ccnc13)C2 (centres unmarked) [Example 656, 5-(8-(1-acetyl-1,6-diazaspiro[3.4]octan-6-yl)imidazo[1,2-b]pyridazin-6-yl)pyrimidine-2,4(1H,3H)-dione]
227 nM	81.3 nM	CC(C)C(=O)N1CCC12CCN(c1cc(-c3c[nH]c(=O)[nH]c3=O)nn3ccnc13)C2 (centres unmarked) [Example 657, 5-(8-(1-isobutyryl-1,6-diazaspiro[3.4]octan-6-yl)imidazo[1,2-b]pyridazin-6-yl)pyrimidine-2,4(1H,3H)-dione]
7.88 nM	1.87 nM	O=C(CC1CN(c2cc(-c3c[nH]c(=O)[nH]c3=O)nn3ccnc23)CC1(F)F)NC1(C(F)(F)F)CC1 (centres unmarked) [Example 658, 2-(1-(6-(2,4-dioxo-1,2,3,4-tetrahydropyrimidin-5-yl)imidazo[1,2-b]pyridazin-8-yl)-4,4-difluoropyrrolidin-3-yl)-N-(1-(trifluoromethyl)cyclopropyl)acetamide]
33.6 nM	6.05 nM	O=C(CC1CN(c2cc(-c3c[nH]c(=O)[nH]c3=O)nn3ccnc23)CC1(F)F)NC12CC(F)(C1)C2 (centres unmarked) [Example 660, 2-(1-(6-(2,4-dioxo-1,2,3,4-tetrahydropyrimidin-5-yl)imidazo[1,2-b]pyridazin-8-yl)-4,4-difluoropyrrolidin-3-yl)-N-(3-fluorobicyclo[1.1.1]pentan-1-yl)acetamide]
